According to ChEMBL document CHEMBL1641539 (Bioorg Med Chem Lett, 2011):

How the values were obtained:
[1] = target: Myotonin-protein kinase (Homo sapiens) (UniProt Q09013); test: Inhibition of human DMPK at 10 uM after 60 mins by TR-FRET assay; values are per cent of control
[2] = target: Vascular endothelial growth factor receptor 1 (Homo sapiens) (UniProt P17948); test: Inhibition of human Flt1 at 10 uM after 60 mins by TR-FRET assay; conditions: values are per cent of control
[3] = target: Inhibitor of nuclear factor kappa-B kinase subunit alpha (Homo sapiens) (UniProt O15111); test: Inhibition of human IKKalpha at 10 uM after 60 mins by TR-FRET assay; values are per cent of control
[4] = target: Serine/threonine-protein kinase Sgk2 (Homo sapiens) (UniProt Q9HBY8); test: Inhibition of human SGK2 at 10 uM after 60 mins by TR-FRET assay; values are per cent of control
[5] = target: Serine/threonine-protein kinase 17A (Homo sapiens) (UniProt Q9UEE5); test: Inhibition of human DRAK1 at 10 uM after 60 mins by TR-FRET assay; values are per cent of control
[6] = target: Vascular endothelial growth factor receptor 3 (Homo sapiens) (UniProt P35916); test: Inhibition of human Flt4 at 10 uM after 60 mins by TR-FRET assay; values are per cent of control
[7] = target: Mitogen-activated protein kinase 14 (Homo sapiens, UniProt Q16539); test: Inhibition of human SAPK2a at 10 uM after 60 mins by TR-FRET assay; conditions: values are per cent of control
[8] = target: Serine/threonine-protein kinase pim-3 (Homo sapiens) (UniProt Q86V86); test: Inhibition of human Pim-3 at 10 uM after 60 mins by TR-FRET assay; values are per cent of control
[9] = target: Serine/threonine-protein kinase WNK2 (Homo sapiens) (UniProt Q9Y3S1); test: Inhibition of human WNK2 at 10 uM after 60 mins by TR-FRET assay; values are per cent of control
[10] = target: Dual specificity mitogen-activated protein kinase kinase 4 (Mus musculus) (UniProt P47809); test: Inhibition of mouse MKK4 at 10 uM after 60 mins by TR-FRET assay; values are per cent of control
[11] = target: Muscle, skeletal receptor tyrosine-protein kinase (Homo sapiens) (UniProt O15146); test: Inhibition of human MuSK at 10 uM after 60 mins by TR-FRET assay; values are per cent of control
[12] = target: Serine/threonine-protein kinase haspin (Homo sapiens) (UniProt Q8TF76); test: Inhibition of human Haspin at 10 uM after 60 mins by TR-FRET assay; values are per cent of control
[13] = target: Hepatocyte growth factor receptor (Homo sapiens) (UniProt P08581); test: Inhibition of human Met at 10 uM after 60 mins by TR-FRET assay; conditions: values are per cent of control
[14] = target: Ribosomal protein S6 kinase alpha-1 (Rattus norvegicus) (UniProt Q63531); test: Inhibition of rat Rsk1 at 10 uM after 60 mins by TR-FRET assay; values are per cent of control
[15] = target: Platelet-derived growth factor receptor beta (Homo sapiens) (UniProt P09619); test: Inhibition of human PDGFRbeta at 10 uM after 60 mins by TR-FRET assay; values are per cent of control
[16] = system: Serine/threonine-protein kinase Chk2 (Homo sapiens), O96017 [R145W]; test: Inhibition of human CHK2 R145W mutant at 10 uM after 60 mins by TR-FRET assay; values are per cent of control
[17] = target: Calcium/calmodulin-dependent protein kinase type II subunit gamma (Homo sapiens) (UniProt Q13555); test: Inhibition of human CaMK2gamma at 10 uM after 60 mins by TR-FRET assay; values are per cent of control
[18] = target: Serine/threonine-protein kinase Chk2 (Homo sapiens) (UniProt O96017); test: Inhibition of human CHK2 at 10 uM after 60 mins by TR-FRET assay; values are per cent of control
[19] = target: Tyrosine-protein kinase Mer (Homo sapiens) (UniProt Q12866); test: Inhibition of human Mer at 10 uM after 60 mins by TR-FRET assay; values are per cent of control
[20] = target: Mitogen-activated protein kinase kinase kinase 7 (Homo sapiens) (UniProt O43318); test: Inhibition of human TAK1 at 10 uM after 60 mins by TR-FRET assay; values are per cent of control
[21] = target: Casein kinase I isoform delta (Homo sapiens) (UniProt P48730); test: Inhibition of human CK1d at 10 uM after 60 mins by TR-FRET assay; values are per cent of control
[22] = target: Tyrosine-protein kinase HCK (Homo sapiens) (UniProt P08631); test: Inhibition of human Hck at 10 uM after 60 mins by TR-FRET assay; values are per cent of control
[23] = target: Mast/stem cell growth factor receptor Kit (Homo sapiens) (UniProt P10721); test: Inhibition of human c-Kit at 10 uM after 60 mins by TR-FRET assay; values are per cent of control
[24] = target: Serine/threonine-protein kinase MARK2 (Homo sapiens) (UniProt Q7KZI7); test: Inhibition of human PAR-1Balpha at 10 uM after 60 mins by TR-FRET assay; values are per cent of control
[25] = target: 3-phosphoinositide-dependent protein kinase 1 (Homo sapiens) (UniProt O15530); test: Inhibition of human PDK1 at 10 uM after 60 mins by TR-FRET assay; values are per cent of control
[26] = target: Serine/threonine-protein kinase pim-1 (Homo sapiens) (UniProt P11309); test: Inhibition of human Pim-1 at 10 uM after 60 mins by TR-FRET assay; values are per cent of control
[27] = target: Serine/threonine-protein kinase MARK1 (Homo sapiens) (UniProt Q9P0L2); test: Inhibition of human MARK1 at 10 uM after 60 mins by TR-FRET assay; values are per cent of control
[28] = target: RAC-gamma serine/threonine-protein kinase (Homo sapiens) (UniProt Q9Y243); test: Inhibition of human PKBgamma at 10 uM after 60 mins by TR-FRET assay; values are per cent of control

Sequence of 3-phosphoinositide-dependent protein kinase 1 (Homo sapiens) (O15530 whole entry): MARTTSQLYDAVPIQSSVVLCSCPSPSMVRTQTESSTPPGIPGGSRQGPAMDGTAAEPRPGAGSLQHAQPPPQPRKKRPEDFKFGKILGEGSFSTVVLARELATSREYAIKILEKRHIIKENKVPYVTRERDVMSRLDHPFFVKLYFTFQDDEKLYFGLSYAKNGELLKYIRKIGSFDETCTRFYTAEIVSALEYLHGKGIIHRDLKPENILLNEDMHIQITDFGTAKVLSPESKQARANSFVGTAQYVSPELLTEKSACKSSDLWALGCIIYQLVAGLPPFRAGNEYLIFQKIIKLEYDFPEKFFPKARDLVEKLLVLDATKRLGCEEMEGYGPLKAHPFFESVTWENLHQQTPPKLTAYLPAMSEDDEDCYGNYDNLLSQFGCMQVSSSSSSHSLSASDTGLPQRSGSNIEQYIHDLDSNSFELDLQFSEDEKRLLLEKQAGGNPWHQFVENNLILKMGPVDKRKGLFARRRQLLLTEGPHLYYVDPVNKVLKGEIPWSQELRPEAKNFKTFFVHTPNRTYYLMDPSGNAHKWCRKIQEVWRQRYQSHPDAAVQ
Sequence of Platelet-derived growth factor receptor beta (Homo sapiens) (P09619 whole entry): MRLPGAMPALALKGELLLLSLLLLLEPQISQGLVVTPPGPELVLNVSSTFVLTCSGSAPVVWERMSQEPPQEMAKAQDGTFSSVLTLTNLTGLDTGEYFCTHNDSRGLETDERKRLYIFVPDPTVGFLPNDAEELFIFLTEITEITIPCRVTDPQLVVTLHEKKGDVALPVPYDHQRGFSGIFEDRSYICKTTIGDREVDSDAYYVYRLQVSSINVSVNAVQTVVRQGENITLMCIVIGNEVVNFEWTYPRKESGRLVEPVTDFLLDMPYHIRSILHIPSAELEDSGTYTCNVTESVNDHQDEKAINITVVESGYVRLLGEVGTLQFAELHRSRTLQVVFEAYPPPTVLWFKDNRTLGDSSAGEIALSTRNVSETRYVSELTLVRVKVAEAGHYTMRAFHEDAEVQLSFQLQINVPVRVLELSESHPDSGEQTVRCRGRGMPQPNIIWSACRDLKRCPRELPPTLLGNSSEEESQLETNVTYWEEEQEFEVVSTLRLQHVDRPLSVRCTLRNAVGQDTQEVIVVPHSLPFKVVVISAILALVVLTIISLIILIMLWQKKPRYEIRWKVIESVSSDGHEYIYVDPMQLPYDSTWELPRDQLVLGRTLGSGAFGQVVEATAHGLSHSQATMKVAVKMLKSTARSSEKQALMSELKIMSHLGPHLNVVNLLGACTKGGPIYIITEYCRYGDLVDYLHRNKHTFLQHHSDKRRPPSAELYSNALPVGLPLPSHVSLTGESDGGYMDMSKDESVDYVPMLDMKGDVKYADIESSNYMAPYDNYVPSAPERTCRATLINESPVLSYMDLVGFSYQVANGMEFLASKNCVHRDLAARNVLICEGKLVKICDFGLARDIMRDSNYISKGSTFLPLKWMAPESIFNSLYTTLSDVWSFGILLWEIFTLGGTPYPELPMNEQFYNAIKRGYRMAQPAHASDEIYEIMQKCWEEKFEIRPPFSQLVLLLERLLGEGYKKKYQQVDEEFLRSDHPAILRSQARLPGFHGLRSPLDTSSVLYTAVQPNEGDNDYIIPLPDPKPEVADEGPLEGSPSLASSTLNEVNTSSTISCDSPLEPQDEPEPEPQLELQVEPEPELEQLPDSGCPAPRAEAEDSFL
Sequence of Mitogen-activated protein kinase 14 (Q16539 whole entry): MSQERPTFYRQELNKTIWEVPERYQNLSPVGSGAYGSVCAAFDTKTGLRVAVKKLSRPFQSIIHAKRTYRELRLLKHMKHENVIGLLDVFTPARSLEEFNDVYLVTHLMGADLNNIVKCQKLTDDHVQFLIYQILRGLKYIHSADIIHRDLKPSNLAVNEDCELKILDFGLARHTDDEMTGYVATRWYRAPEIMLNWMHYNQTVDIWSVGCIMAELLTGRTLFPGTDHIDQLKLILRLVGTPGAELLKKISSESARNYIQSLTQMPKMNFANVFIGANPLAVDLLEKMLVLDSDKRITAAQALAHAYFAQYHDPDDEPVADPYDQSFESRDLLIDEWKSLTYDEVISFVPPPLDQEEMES
Sequence of Tyrosine-protein kinase HCK (Homo sapiens) (P08631 2-526 limits assumed): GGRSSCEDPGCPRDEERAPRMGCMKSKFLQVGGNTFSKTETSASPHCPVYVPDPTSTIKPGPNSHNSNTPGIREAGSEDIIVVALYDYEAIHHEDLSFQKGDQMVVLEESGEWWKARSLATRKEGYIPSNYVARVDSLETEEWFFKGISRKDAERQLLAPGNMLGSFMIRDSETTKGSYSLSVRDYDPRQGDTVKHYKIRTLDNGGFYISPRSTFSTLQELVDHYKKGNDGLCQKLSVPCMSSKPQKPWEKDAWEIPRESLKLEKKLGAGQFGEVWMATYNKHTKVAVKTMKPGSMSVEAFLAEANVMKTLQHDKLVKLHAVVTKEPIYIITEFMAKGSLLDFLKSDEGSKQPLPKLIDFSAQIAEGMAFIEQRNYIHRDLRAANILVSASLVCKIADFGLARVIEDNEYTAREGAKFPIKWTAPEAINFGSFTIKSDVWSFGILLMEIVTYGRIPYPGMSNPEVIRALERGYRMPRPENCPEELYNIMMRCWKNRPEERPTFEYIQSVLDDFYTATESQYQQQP
Sequence of Casein kinase I isoform delta (Homo sapiens) (P48730 whole entry, looked up, canonical isoform): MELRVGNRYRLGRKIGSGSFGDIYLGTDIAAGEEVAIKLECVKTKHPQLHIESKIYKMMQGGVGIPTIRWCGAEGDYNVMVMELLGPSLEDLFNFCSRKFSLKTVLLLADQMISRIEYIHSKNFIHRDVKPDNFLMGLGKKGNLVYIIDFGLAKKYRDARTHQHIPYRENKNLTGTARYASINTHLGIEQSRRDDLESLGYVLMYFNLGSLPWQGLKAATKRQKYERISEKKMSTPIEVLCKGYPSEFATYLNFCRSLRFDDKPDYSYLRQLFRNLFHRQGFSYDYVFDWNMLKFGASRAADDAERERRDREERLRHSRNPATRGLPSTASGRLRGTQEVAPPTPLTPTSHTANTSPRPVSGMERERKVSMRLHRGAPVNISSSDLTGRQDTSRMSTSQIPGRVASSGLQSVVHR
Sequence of Hepatocyte growth factor receptor (Homo sapiens) (P08581 whole entry): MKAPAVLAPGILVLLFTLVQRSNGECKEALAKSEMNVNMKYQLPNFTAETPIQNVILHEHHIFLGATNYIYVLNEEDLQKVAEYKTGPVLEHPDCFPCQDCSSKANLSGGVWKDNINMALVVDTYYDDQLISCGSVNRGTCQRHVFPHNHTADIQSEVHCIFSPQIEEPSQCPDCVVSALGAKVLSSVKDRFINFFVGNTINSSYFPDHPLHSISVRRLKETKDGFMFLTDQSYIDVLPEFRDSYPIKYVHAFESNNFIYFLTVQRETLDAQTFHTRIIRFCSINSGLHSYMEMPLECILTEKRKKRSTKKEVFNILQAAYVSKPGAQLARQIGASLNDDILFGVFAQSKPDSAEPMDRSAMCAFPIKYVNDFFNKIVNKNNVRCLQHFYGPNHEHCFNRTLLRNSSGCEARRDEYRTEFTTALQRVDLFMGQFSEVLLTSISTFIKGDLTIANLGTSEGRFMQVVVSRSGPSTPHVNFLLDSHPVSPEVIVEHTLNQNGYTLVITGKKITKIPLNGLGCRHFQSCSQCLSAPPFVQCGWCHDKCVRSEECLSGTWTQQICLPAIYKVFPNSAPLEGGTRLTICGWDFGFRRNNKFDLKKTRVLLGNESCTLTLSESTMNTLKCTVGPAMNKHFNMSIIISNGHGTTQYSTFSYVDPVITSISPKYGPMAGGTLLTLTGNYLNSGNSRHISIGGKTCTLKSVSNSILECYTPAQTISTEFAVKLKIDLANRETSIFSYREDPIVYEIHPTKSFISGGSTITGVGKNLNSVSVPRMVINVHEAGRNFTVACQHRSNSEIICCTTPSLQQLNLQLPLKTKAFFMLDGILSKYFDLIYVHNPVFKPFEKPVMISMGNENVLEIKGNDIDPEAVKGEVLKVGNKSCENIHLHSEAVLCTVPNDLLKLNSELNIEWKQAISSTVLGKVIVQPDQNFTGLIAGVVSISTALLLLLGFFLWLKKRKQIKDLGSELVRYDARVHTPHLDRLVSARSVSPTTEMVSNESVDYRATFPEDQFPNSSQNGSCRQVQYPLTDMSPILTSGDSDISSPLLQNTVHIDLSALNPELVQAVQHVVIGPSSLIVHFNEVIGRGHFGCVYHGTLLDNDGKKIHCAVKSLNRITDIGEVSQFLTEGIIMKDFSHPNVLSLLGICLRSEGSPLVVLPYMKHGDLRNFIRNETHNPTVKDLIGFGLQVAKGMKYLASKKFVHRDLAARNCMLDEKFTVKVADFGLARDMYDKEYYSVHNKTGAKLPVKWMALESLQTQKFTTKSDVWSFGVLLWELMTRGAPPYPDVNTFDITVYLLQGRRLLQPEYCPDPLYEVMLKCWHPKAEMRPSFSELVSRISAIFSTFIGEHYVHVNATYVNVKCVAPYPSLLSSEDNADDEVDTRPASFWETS
Sequence of Serine/threonine-protein kinase Sgk2 (Homo sapiens) (Q9HBY8 whole entry): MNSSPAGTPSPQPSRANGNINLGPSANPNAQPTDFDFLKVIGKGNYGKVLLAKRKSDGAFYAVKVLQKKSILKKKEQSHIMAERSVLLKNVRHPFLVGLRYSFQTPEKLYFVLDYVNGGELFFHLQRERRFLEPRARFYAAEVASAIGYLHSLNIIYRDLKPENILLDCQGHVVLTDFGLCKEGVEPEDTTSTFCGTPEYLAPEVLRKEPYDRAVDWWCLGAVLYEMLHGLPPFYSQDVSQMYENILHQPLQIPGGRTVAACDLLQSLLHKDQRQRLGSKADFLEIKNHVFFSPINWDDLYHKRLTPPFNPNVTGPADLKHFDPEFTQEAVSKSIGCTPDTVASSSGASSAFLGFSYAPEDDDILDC
Sequence of Serine/threonine-protein kinase pim-1 (Homo sapiens) (P11309 whole entry, looked up): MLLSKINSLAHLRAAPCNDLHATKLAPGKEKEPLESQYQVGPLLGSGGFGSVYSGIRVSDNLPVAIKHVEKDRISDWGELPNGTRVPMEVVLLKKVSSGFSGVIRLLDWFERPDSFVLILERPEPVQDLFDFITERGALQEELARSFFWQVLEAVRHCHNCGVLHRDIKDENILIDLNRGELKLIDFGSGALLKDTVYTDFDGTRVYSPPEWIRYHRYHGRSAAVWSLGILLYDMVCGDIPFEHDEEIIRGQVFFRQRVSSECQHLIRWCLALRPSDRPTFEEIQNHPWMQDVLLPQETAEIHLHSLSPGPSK

- residual activity [1]: 111%
- residual activity [2]: 107%
- residual activity [3]: 100%
- residual activity [4]: 119%
- residual activity [5]: 96%
- residual activity [6]: 95%
- residual activity [7]: 71%
- residual activity [8]: 99%
- residual activity [9]: 108%
- residual activity [10]: 106%
- residual activity [11]: 114%
- residual activity [12]: 102%
- residual activity [13]: 108%
- residual activity [14]: 103%
- residual activity [15]: 99%
- residual activity [16]: 108%
- residual activity [17]: 118%
- residual activity [18]: 116%
- residual activity [19]: 107%
- residual activity [20]: 89%
- residual activity [21]: 96%
- residual activity [22]: 112%
- residual activity [23]: 108%
- residual activity [24]: 110%
- residual activity [25]: 108%
- residual activity [26]: 96%
- residual activity [27]: 113%
- residual activity [28]: 110%
Structure (SMILES): S=c1[nH]nc(-c2ccncc2)n1-c1ccc2ccccc2c1
